pIC50: −log10 of the molar value.
Experiments:
[1] = tested on: HDACs (HeLa cell nuclear extracts); experiment: HDAC enzymatic activity, Biomol Color de Lys system; type: biochemical; conditions: 1 hour, 25° C.
Method in brief: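 HeLa nuclear extract incubated with serially diluted compound and […] artificial substrate in 50 mM Tris/Cl pH 8.0, 137 mM NaCl, 2.7 mM KCl, 1 mM MgCl2. Run 1 h at 25 °C, stopped with developer. Fluorescence read (ex 350-380, em 440-460 nm); IC50 from sigmoidal dose-response fit.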

PI3Kα (p110α/p85α) = target: T1, PI3Kα (p110α/p85α) (Homo sapiens, UniProt P42336); experiment: PI3Kα ADP-Glo assay; type: biochemical; conditions: 20 μM PIP2, 10 μM ATP, 30 minutes
T1 construct: GST (N); made in house; host or cells: Baculovirus-infected Sf9 cells
Method in brief: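 Recombinant full-length human GST-p110α/His-p85α, co-expressed in Sf9 cells, was incubated 30 min at room temperature with 20 μM PIP2 and 10 μM ATP. The buffer was 50 mM HEPES pH 7.4, 150 mM NaCl, 5 mM MgCl2, 1 mM DTT, 3 µM orthovanadate and 0.5% DMSO. ADP formed was detected by ADP-Glo luminescence.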

T1 sequence (P42336 whole entry): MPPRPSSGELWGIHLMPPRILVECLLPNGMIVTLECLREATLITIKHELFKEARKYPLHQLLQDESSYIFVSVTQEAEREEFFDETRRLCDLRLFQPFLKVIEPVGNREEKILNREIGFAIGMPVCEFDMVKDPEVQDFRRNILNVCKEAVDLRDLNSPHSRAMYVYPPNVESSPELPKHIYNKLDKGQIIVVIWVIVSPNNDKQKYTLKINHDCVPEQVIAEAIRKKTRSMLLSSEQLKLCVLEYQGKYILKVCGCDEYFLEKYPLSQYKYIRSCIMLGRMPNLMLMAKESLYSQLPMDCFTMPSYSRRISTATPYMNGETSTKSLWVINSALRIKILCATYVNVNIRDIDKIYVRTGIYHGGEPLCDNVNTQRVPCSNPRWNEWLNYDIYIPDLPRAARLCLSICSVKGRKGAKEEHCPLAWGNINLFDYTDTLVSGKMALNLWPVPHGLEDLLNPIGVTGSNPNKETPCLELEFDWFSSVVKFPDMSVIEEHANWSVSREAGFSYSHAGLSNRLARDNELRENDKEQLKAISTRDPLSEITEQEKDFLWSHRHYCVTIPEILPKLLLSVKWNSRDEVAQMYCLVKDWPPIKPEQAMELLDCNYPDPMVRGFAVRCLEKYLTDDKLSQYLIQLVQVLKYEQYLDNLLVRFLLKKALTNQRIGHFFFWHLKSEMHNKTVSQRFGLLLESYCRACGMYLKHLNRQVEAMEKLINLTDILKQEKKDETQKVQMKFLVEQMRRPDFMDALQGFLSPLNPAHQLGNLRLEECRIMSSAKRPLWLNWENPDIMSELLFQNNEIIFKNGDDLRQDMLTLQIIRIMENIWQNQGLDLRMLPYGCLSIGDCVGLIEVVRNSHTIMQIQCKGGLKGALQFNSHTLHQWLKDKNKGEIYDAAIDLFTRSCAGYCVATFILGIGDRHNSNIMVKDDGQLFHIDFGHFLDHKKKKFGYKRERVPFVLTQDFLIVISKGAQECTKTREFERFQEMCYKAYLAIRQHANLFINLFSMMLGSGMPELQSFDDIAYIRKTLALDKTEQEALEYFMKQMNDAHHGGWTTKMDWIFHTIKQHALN
T1 sequence (P27986 whole entry partner): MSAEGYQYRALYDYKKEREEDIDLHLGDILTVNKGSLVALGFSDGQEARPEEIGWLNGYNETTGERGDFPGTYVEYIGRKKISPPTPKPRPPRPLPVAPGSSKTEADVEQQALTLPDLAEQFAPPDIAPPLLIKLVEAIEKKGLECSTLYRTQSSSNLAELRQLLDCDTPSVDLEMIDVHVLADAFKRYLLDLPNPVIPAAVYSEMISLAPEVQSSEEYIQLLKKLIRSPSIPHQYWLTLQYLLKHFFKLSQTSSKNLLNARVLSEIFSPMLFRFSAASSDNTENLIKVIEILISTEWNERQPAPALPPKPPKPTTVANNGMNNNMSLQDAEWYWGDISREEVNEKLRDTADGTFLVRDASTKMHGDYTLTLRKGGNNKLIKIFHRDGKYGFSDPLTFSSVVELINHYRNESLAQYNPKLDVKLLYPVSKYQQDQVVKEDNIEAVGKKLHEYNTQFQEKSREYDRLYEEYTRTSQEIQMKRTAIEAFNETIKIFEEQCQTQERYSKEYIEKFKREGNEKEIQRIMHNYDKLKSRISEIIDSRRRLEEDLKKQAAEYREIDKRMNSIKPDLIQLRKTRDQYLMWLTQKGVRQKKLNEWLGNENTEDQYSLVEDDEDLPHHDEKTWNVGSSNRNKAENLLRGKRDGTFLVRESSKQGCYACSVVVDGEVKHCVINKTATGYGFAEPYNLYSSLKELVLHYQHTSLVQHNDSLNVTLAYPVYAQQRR

Compound | pIC50 [1] | pIC50 (PI3Kα (p110α/p85α)) | melting point [°C]
CN(Cc1cc2nc(-c3ccc(O)cc3)nc(N3CCOCC3)c2s1)c1ncc(C(=O)NO)cn1 [Compound 133, N-hydroxy-2-(((2-(4-hydroxyphenyl)-4-morpholinothieno[3,2-d]pyrimidin-6-yl)methyl)(methyl)amino)pyrimidine-5-carboxamide] | > 7.00 | 6.00 to 7.00 | 185 to 195
CN(Cc1cc2nc(-c3cc[nH]c3)nc(N3CCOCC3)c2s1)c1ncc(C(=O)NO)cn1 [Compound 197, N-hydroxy-2-(methyl((4-morpholino-2-(1H-pyrrol-3-yl)thieno[3,2-d]pyrimidin-6-yl)methyl)amino)pyrimidine-5-carboxamide] | > 7.00 | > 7.00 | 175 to 189
CN(Cc1cc2nc(-c3cccc(N)c3)nc(N3CCOCC3)c2s1)c1ncc(C(=O)NO)cn1 [Compound 134, 2-(((2-(3-aminophenyl)-4-morpholinothieno[3,2-d]pyrimidin-6-yl)methyl)(methyl)amino)-N-hydroxypyrimidine-5-carboxamide] | > 7.00 | 6.00 to 7.00 | 179 to 182
CN(Cc1cc2nc(-c3ccc(N4CCCC4)cc3)nc(N3CCOCC3)c2s1)c1ncc(C(=O)NO)cn1 [Compound 155, N-hydroxy-2-(methyl((4-morpholino-2-(4-(pyrrolidin-1-yl)phenyl)thieno[3,2-d]pyrimidin-6-yl)methyl)amino)pyrimidine-5-carboxamide] | > 7.00 | < 5.00 | 187 to 192
CS(=O)(=O)N1CCN(Cc2cc3nc(-c4ccc(OCCCCCC(=O)NO)cc4)nc(N4CCOCC4)c3s2)CC1 [Compound 320, N-Hydroxy-6-(4-(6-((4-(methylsulfonyl)piperazin-1-yl)methyl)-4-morpholinothieno[3,2-d]pyrimidin-2-yl)phenoxy)hexanamide] | 6.00 to 7.00 | 6.00 to 7.00 | 140 to 142
CN(Cc1cc2nc(-c3ccc(CO)cc3)nc(N3CCOCC3)c2s1)c1ncc(C(=O)NO)cn1 [Compound 140, N-hydroxy-2-(((2-(4-(hydroxymethyl)phenyl)-4-morpholinothieno[3,2-d]pyrimidin-6-yl)methyl)(methyl)amino)pyrimidine-5-carboxamide] | > 7.00 | 6.00 to 7.00 | 218 to 223
CN(Cc1cc2nc(-c3ccc(N)c([N+](=O)[O-])c3)nc(N3CCOCC3)c2s1)c1ncc(C(=O)NO)cn1 [Compound 278, 2-(((2-(4-Amino-3-nitrophenyl)-4-morpholinothieno[3,2-d]pyrimidin-6-yl)methyl)(methyl)amino)-N-hydroxypyrimidine-5-carboxamide] | > 7.00 | > 7.00 | 202 to 206
CCN(CC)c1ccc(-c2nc(N3CCOCC3)c3sc(CN(C)c4ncc(C(=O)NO)cn4)cc3n2)cc1 [Compound 154, 2-(((2-(4-(Diethylamino)phenyl)-4-morpholinothieno[3,2-d]pyrimidin-6-yl)methyl)(methyl)amino)-N-hydroxypyrimidine-5-carboxamide] | > 7.00 | < 5.00 | 192 to 196
CN(Cc1cc2nc(-c3cncnc3)nc(N3CCOCC3)c2s1)c1ncc(C(=O)NO)cn1 [Compound 119, N-hydroxy-2-(methyl((4-morpholino-2-(pyrimidin-5-yl)thieno[3,2-d]pyrimidin-6-yl)methyl)amino)pyrimidine-5-carboxamide] | > 7.00 | > 7.00 | 159 to 160
COc1ncc(-c2nc(N3CCOCC3)c3sc(C(C)(C)Nc4ncc(C(=O)NO)cn4)cc3n2)cn1 [Compound 263, N-Hydroxy-2-(2-(2-(2-methoxypyrimidin-5-yl)-4-morpholinothieno[3,2-d]pyrimidin-6-yl)propan-2-ylamino)pyrimidine-5-carboxamide] | > 7.00 | > 7.00 | 202 to 207

From patent US20130102595A1 (Curis, Inc., priority 2011, published 2013)
